Data: patent US10689354B2, “Aminoazole derivative” (Teijin Pharma Limited, priority 2015, dated 2020)

Tests used:
[1] = biological target: T1, androgen receptor (AR-LBD) (Rattus norvegicus, UniProt P15207); assay: Evaluation of androgen receptor affinity (PolarScreen Androgen Receptor Competitor Assay Kit, Red; fluorescence polarization); conditions: 22° C. for 5 hours, relative to binding rate of 1 μM DHT, read-out: AR affinity (pEC50) (converted)
T1 construct: 5 μL of 2×AR-LBD/Fluoromone AL Red Complex contained in the kit; purchased Invitrogen
T1 sequence (P15207 651-882 limits assumed): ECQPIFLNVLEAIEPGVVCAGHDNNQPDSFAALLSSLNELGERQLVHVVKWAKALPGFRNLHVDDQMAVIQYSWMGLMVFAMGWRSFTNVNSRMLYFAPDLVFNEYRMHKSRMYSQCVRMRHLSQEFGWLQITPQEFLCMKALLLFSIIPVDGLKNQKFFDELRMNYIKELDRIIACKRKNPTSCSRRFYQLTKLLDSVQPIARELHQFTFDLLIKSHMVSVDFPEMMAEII
In short: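 Compounds were mixed with AR-LBD/Fluoromone AL Red complex and incubated 5 h at 22° C before fluorescence polarization was read. Binding was expressed relative to 1 μM dihydrotestosterone, and pEC50 (concentration giving 50% of that binding) came from a 4-parameter fit.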

[2] = biological target: T2, human androgen receptor (Homo sapiens, UniProt P10275); assay: Reporter assay of an androgen receptor responsive sequence (luciferase, transiently transfected HEK293 cells); assay type: cell-based; conditions: 24 hours incubation, relative to activity of 100 nM DHT, read-out: AR transcriptive activity (pEC50) (converted)
T2 construct: expressed in transfected cells; host or cells: HEK293
T2 sequence (P10275 1-920): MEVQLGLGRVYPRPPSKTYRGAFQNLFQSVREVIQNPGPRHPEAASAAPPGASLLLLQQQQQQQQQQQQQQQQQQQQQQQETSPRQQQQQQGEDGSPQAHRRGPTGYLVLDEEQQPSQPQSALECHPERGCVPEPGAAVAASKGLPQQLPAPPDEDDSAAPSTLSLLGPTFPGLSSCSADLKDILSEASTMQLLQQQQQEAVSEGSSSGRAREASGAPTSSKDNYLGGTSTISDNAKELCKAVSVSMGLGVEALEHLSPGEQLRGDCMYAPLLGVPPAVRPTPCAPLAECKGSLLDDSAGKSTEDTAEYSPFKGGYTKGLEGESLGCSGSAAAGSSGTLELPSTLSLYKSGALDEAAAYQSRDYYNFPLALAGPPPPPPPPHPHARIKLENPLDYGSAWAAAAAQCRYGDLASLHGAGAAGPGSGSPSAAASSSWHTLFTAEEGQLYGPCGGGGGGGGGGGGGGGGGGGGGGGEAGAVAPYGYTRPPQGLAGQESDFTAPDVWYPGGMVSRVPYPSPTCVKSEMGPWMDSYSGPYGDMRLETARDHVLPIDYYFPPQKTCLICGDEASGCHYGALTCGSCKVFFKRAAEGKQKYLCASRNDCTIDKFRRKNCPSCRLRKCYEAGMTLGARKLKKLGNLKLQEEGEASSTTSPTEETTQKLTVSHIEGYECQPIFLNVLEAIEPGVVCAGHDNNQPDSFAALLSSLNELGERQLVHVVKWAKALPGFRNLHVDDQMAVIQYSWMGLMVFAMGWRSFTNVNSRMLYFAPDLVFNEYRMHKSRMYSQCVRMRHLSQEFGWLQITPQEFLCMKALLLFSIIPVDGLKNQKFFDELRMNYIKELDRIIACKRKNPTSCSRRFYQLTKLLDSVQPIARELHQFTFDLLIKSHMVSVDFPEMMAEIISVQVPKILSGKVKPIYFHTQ
In short: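 HEK293 cells transiently transfected for 3 h with ARE-firefly luciferase, full-length human AR and TK-Renilla plasmids, then exposed to compound for 24 h at 37 °C in 5% charcoal-treated FBS/DMEM. Dual-Glo luminescence read; pEC50 from 4-parameter fit relative to 100 nM DHT.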

| Compound | EC50 [1] | EC50 [2] |
| --- | --- | --- |
| Cc1oc(N(Cc2ccc(Br)cc2)c2ccc(C#N)cc2)nc1C(=O)NS(C)(=O)=O [Example 285, 2-[N-[(4-bromophenyl)methyl]-4-cyano-anilino]-5-methyl-N-methylsulfonyl-oxazole-4-carboxamide] | 50.1 nM | 200 nM |
| Cc1sc(N(Cc2ccc(OCc3ccccn3)cc2)c2ccc(C#N)cc2)nc1C(=O)NS(C)(=O)=O [Compound 568, 2-[4-cyano-N-[[4-(2-pyridylmethoxy)phenyl]methyl]anilino]-5-methyl-N-methylsulfonyl-thiazole-4-carboxamide] | 158 nM | 794 nM |
| Cc1sc(N(Cc2cc(C(F)(F)F)ccc2Cl)c2ccc(C#N)cc2)nc1C(=O)NS(C)(=O)=O [Compound 417, 2-[N-[[2-chloro-5-(trifluoromethyl)phenyl]methyl]-4-cyano-anilino]-5-methyl-N-methylsulfonyl-thiazole-4-carboxamide] | 316 nM | > 10000 nM |
| CCOC(=O)CS(=O)(=O)NC(=O)c1nc(N(Cc2ccccc2)c2ccc(C#N)cc2)sc1C [Compound 384, ethyl 2-[[2-(N-benzyl-4-cyano-anilino)-5-methyl-thiazole-4-carbonyl]sulfamoyl]acetate] | 39.8 nM | 251 nM |
| Cc1sc(N(Cc2ccc(Br)c(Cl)c2)c2ccc(C#N)cc2)nc1C(=O)NS(C)(=O)=O [Compound 528, 2-[N-[(4-bromo-3-chloro-phenyl)methyl]-4-cyano-anilino]-5-methyl-N-methylsulfonyl-thiazole-4-carboxamide] | > 2000 nM | 7940 nM |
| CCc1oc(N(CC[C@@H]2CCCC[C@H]2O)c2ccc(C#N)cc2)nc1C(=O)NS(C)(=O)=O (racemic) [Compound 629, 2-[4-cyano-N-[2-[trans-2-hydroxycyclohexyl]ethyl]anilino]-5-ethyl-N-methylsulfonyl-oxazole-4-carboxamide] | 316 nM | 2510 nM |
| COC[C@@H](C)Oc1ccc(CN(c2ccc(C#N)cc2)c2nc(C(=O)NS(C)(=O)=O)c(C)s2)cc1 [Compound 583, 2-[4-cyano-N-[[4-[(1R)-2-methoxy-1-methyl-ethoxy]phenyl]methyl]anilino]-5-methyl-N-methylsulfonyl-thiazole-4-carboxamide] | 39.8 nM | 2000 nM |
| CCc1oc(N(Cc2ccc(OC(F)F)c(F)c2)c2ccc(C#N)cc2)nc1C(=O)NS(C)(=O)=O [Compound 654, 2-[4-cyano-N-[[4-(difluoromethoxy)-3-fluoro-phenyl]methyl]anilino]-5-ethyl-N-methylsulfonyl-oxazole-4-carboxamide] | 39.8 nM | 631 nM |
| Cc1nc(CN(CCc2ccc(Cl)cc2)c2nc(C(=O)NS(C)(=O)=O)c(C)o2)cs1 [Compound 546, 2-[2-(4-chlorophenyl)ethyl-[(2-methylthiazol-4-yl)methyl]amino]-5-methyl-N-methylsulfonyl-oxazole-4-carboxamide] | 200 nM | 1580 nM |
| Cc1sc(N(Cc2ccccc2)c2ccc(Cl)cc2)nc1C(=O)NS(C)(=O)=O [Compound 31, 2-(N-benzyl-4-chloro-anilino)-5-methyl-N-methylsulfonyl-thiazole-4-carboxamide] | 100 nM | 2510 nM |
| Cc1sc(N(Cc2ccc(-c3ccc(F)cc3)cc2)c2ccc(C#N)cc2)nc1C(=O)NS(C)(=O)=O [Compound 141, 2-[4-cyano-N-[[4-(4-fluorophenyl)phenyl]methyl]anilino]-5-methyl-N-methylsulfonyl-thiazole-4-carboxamide] | 50.1 nM | 316 nM |
| Cc1sc(N(Cc2ccc(-c3ccc(F)cc3)nc2)c2ccc(C#N)cc2)nc1C(=O)NS(C)(=O)=O [Compound 592, 2-[4-cyano-N-[[6-(4-fluorophenyl)-3-pyridyl]methyl]anilino]-5-methyl-N-methylsulfonyl-thiazole-4-carboxamide] | 100 nM | 794 nM |
| Cc1sc(N(Cc2ccc(F)cc2Br)c2ccc(C#N)cc2)nc1C(=O)NS(C)(=O)=O [Example 177, 2-[N-[(2-bromo-4-fluoro-phenyl)methyl]-4-cyano-anilino]-5-methyl-N-methylsulfonyl-thiazole-4-carboxamide] | 79.4 nM | 501 nM |
| Cc1sc(N(CCc2ccc(C#N)cc2)Cc2ccc(Cl)cc2)nc1C(=O)NS(=O)(=O)Cc1ccncc1 [Compound 741, 2-[(4-chlorophenyl)methyl-[2-(4-cyanophenyl)ethyl]amino]-5-methyl-N-(4-pyridylmethylsulfonyl)thiazole-4-carboxamide] | 25.1 nM | 158 nM |
| CS(=O)(=O)NC(=O)c1nc(N(Cc2cccc(F)c2)c2ccc(C#N)cc2)sc1Cl [Example 258, 5-chloro-2-[4-cyano-N-[(3-fluorophenyl)methyl]anilino]-N-methylsulfonyl-thiazole-4-carboxamide] | 63.1 nM | 100 nM |

The next lines start with the values.

| EC50 [1] | EC50 [2] | Compound |
| --- | --- | --- |
| 31.6 nM | 100 nM | Cc1sc(N(CCc2ccc(C#N)cc2)Cc2ccc(Cl)cc2)nc1C(=O)NS(C)(=O)=O [Example 306, 2-[(4-chlorophenyl)methyl-[2-(4-cyanophenyl)ethyl]amino]-5-methyl-N-methylsulfonyl-thiazole-4-carboxamide] |
| 39.8 nM | 50.1 nM | Cc1sc(N(CC2=CCCCC2)c2ccc(C#N)cc2)nc1C(=O)NS(C)(=O)=O [Compound 366, 2-[4-cyano-N-(cyclohexen-1-ylmethyl)anilino]-5-methyl-N-methylsulfonyl-thiazole-4-carboxamide] |
| 316 nM | 1260 nM | Cc1sc(N(CCC2CCCC(O)C2)c2ccc(C#N)cc2)nc1C(=O)NS(C)(=O)=O (stereo not shown) [Compound 442, 2-[4-cyano-N-[2-(3-hydroxycyclohexyl)ethyl]anilino]-5-methyl-N-methylsulfonyl-thiazole-4-carboxamide] |
| 200 nM | > 10000 nM | CCS(=O)(=O)NC(=O)c1nc(N(CCC2CCCCC2)Cc2ccc(OC(F)(F)F)cc2)sc1C [Compound 733, 2-[2-cyclohexylethyl-[[4-(trifluoromethoxy)phenyl]methyl]amino]-N-ethylsulfonyl-5-methyl-thiazole-4-carboxamide] |
| 200 nM | 2510 nM | Cc1sc(N(CCc2cccs2)Cc2ccccc2)nc1C(=O)NS(C)(=O)=O [Example 310, 2-[benzyl-[2-(2-thienyl)ethyl]amino]-5-methyl-N-methylsulfonyl-thiazole-4-carboxamide] |
| 251 nM | > 10000 nM | Cc1sc(N(CCc2cccc(C(F)(F)F)c2)Cc2ccccc2)nc1C(=O)NS(C)(=O)=O [Compound 330, 2-[benzyl-[2-[3-(trifluoromethyl)phenyl]ethyl]amino]-5-methyl-N-methylsulfonyl-thiazole-4-carboxamide] |
| 25.1 nM | 50.1 nM | Cc1sc(N(CCc2ccc(Cl)cc2)Cc2cccc(F)c2)nc1C(=O)NS(C)(=O)=O [Compound 143, 2-[2-(4-chlorophenyl)ethyl-[(3-fluorophenyl)methyl]amino]-5-methyl-N-methylsulfonyl-thiazole-4-carboxamide] |
| 158 nM | 316 nM | Cc1sc(N(Cc2ccc(F)cc2)c2ccc(C(F)(F)F)nc2)nc1C(=O)NS(C)(=O)=O [Compound 469, 2-[(4-fluorophenyl)methyl-[6-(trifluoromethyl)-3-pyridyl]amino]-5-methyl-N-methylsulfonyl-thiazole-4-carboxamide] |
